Molecules are shown by their SMILES. Converted amounts (≈) assume the structure as drawn. “And” between values parts separate entries of the source, which are not always exact repeats. Identical values can stand only once. Like-named read-outs stand apart in the source and are kept apart here. A value given as a limit tells only on which side of the number the result lay.

The test system of assay [1] is mutant RNAP^R89A. Set-up: method as in PMID 29606590. The settings on record: transcription assay, mutant versus wild-type RNAP; cited from earlier work.
Assay [2] has as its system M. tuberculosis H37Rv poly-g-GFP. In words: microbe, parasite or virus in culture. Type of assay: cell-based. The settings on record: for IC90: Mycobacterium tuberculosis, H37RV, 240 h, read-out: IC90 Mtb H37Rv-poly-g-GFP, fluorescence read-out.
The test system is the same in assay [3]. The assay is described as follows: microbe, parasite or virus in culture. The settings on record: Mycobacterium tuberculosis, 336 h, read-out: MIC Mtb H37Rv-poly-g-GFP, turbidity read-out. In kind it is cell-based.
The test system of assay [4] is C. crescentus pfhuA_ΔacrAB-nodT. Type of assay: cell-based. The settings on record: disk diffusion, 20 µg per disk, 24 h, 30 °C; permeable and efflux-deficient strain. (In general: A growth-free zone around the sample is the usual read-out of agar diffusion tests.)
Assay [5] relates to C. crescentus pfhuA. The assay is described as follows: Inhibition zone (Kirby-Bauer disk diffusion), C. crescentus pfhuA. To be noted: 20 µg per disk, 24 h, 30 °C, permeable strain.
The subject of assay [6] is C. difficile 630. In words: microbe, parasite or virus in culture. Type of assay: cell-based, Clostridioides difficile. The settings on record: C. difficile 630, anaerobic, overnight, growth suppressed to OD600 < 0.15; for MIC: Clostridioides difficile, read-out: MIC C. difficile.
In assay [7] the target is T1, M. tuberculosis RNAP (Mycobacterium tuberculosis, UniProt P9WGY7+P9WGY9).
T1 construct: made in house; host or cells: E. coli BL21(DE3) is stated for σA only
In words: biochemical. The settings on record: fluorescent run-off transcription assay, triplicate, mean ± s.d.; read-out: IC50 Mtb RNAP, fluorescence read-out.

Setting [8] is: concentration for 90 % inhibition of fluorescence as proxy for growth inhibition, 10 days, 37 °C.
Where [9] appears, read: 14 days, 37 °C, turbidity by eye.

Regarding `CCc1c(Cl)c(O)c(Cl)c(O)c1C(=O)O[C@H]1[C@H](O)[C@H](OC)[C@H](OC/C2=C\C=C\C[C@H](O)/C(C)=C/[C@H](CC)[C@@H](O[C@@H]3OC(C)(C)[C@@H](OC(=O)C(C)C)[C@H](O)[C@@H]3O)/C(C)=C/C(C)=C/C[C@@H]([C@@H](C)O)OC2=O)O[C@@H]1C` [Fdx, fidaxomicin, reference compound], in assay [1], the “increase of IC50 against the mutant RNAP^R89A” value is reported as greater than 400 fold. Moreover, the IC90 in assay [2] was 0.5 µg/mL (≈ 0.473 µM). In addition, the MIC in assay [3] was 0.5 µg/mL (≈ 0.473 µM); in assay [6], less than 0.0078 µg/mL. Besides, the “Inhibition zone C. crescentus pfuhAh_∆acrABnodT” value in assay [4] is 311 ± 4 mm2 and 311±4.0 mm2. Also, in assay [5], the “Inhibition zone C. crescentus pfuhAh” value stood at 126 ± 20 mm2.
With `CC[C@H]1/C=C(\C)[C@@H](O)C/C=C/C=C(\CNc2nccs2)C(=O)O[C@H]([C@@H](C)O)C/C=C(C)/C=C(\C)[C@@H]1O[C@@H]1OC(C)(C)[C@@H](OC(=O)C(C)C)[C@H](O)[C@@H]1O` [compound 8], the IC90 in assay [2] turned out to be 16 µg/mL (≈ 21.4 µM). Besides, the “Inhibition zone C. crescentus pfuhAh_∆acrABnodT” value in assay [4] was determined as 263 ± 32 mm2. Also, in assay [5], the “Inhibition zone C. crescentus pfuhAh” value was found to be 81 ± 12 mm2. Also, the MIC in assay [6] is 4 to 8 µg/mL (≈ 5.36 to 10.7 µM).
For the compound `CC[C@H]1/C=C(\C)[C@@H](O)C/C=C/C=C(\CNc2nc(COc3ccccc3)cs2)C(=O)O[C@H]([C@@H](C)O)C/C=C(C)/C=C(\C)[C@@H]1O[C@@H]1OC(C)(C)[C@@H](OC(=O)C(C)C)[C@H](O)[C@@H]1O` [compound 10], in assay [7], the IC50 was determined as 170 ± 60 nM. For the same compound, the IC90 in assay [2] came out at 8 µg/mL (≈ 9.38 µM). Further, the MIC in assay [3] lay in the range of 4 to 8 µg/mL (≈ 4.69 to 9.38 µM). In assay [6], the “MIC C. difficile” value turned out to be 1 µg/mL (≈ 1.17 µM) and the MIC was 1 µg/mL (≈ 1.17 µM).
`CC[C@H]1/C=C(\C)[C@@H](O)C/C=C/C=C(\CNc2nc(-c3ccccc3)cs2)C(=O)O[C@H]([C@@H](C)O)C/C=C(C)/C=C(\C)[C@@H]1O[C@@H]1OC(C)(C)[C@@H](OC(=O)C(C)C)[C@H](O)[C@@H]1O` [compound 13]: the IC50 in assay [7] is 130 ± 50 nM. In assay [2], the IC90 amounted to 8 µg/mL (≈ 9.72 µM). Moreover, the MIC in assay [3] is 8 to 16 µg/mL (≈ 9.72 to 19.4 µM); in assay [6], 4 µg/mL (≈ 4.86 µM).
On to `CC[C@H]1/C=C(\C)[C@@H](O)C/C=C/C=C(\CNCc2nnc(-c3ccccc3)o2)C(=O)O[C@H]([C@@H](C)O)C/C=C(C)/C=C(\C)[C@@H]1O[C@@H]1OC(C)(C)[C@@H](OC(=O)C(C)C)[C@H](O)[C@@H]1O` [compound 16], for which the IC50 in assay [7] was 420 ± 230 nM. The IC90 in assay [2] was 4 µg/mL (≈ 4.87 µM). For the same compound, the MIC was 4 µg/mL (≈ 4.87 µM) in assay [3] and 4 to 8 µg/mL (≈ 4.87 to 9.73 µM) in assay [6]. Moreover, the “Inhibition zone C. crescentus pfuhAh_∆acrABnodT” value in assay [4] is 322 ± 26 mm2. The “Inhibition zone C. crescentus pfuhAh” value in assay [5] turned out to be 127 ± 13 mm2.
For `CC[C@H]1/C=C(\C)[C@@H](O)C/C=C/C=C(\CNCc2nnc(-c3ccc(OC)c(OC)c3Cl)o2)C(=O)O[C@H]([C@@H](C)O)C/C=C(C)/C=C(\C)[C@@H]1O[C@@H]1OC(C)(C)[C@@H](OC(=O)C(C)C)[C@H](O)[C@@H]1O` [compound 18], the IC90 in assay [2] was found to be 8 µg/mL (≈ 8.73 µM). Besides, the values for the MIC in assay [3] and in assay [6] were 4 µg/mL (≈ 4.36 µM) and 8 µg/mL (≈ 8.73 µM), respectively. Further, in assay [4], the “Inhibition zone C. crescentus pfuhAh_∆acrABnodT” value is given as 200 ± 19 mm2. In addition, the “Inhibition zone C. crescentus pfuhAh” value in assay [5] worked out at 54 ± 8 mm2.
Take `CC[C@H]1/C=C(\C)[C@@H](O)C/C=C/C=C(\CNCc2nnc(-c3ccccc3)s2)C(=O)O[C@H]([C@@H](C)O)C/C=C(C)/C=C(\C)[C@@H]1O[C@@H]1OC(C)(C)[C@@H](OC(=O)C(C)C)[C@H](O)[C@@H]1O` [compound 20]: in assay [2], the IC90 was 2 µg/mL (≈ 2.39 µM). In assay [3], the MIC was 2 µg/mL (≈ 2.39 µM). For the same compound, the “Inhibition zone C. crescentus pfuhAh_∆acrABnodT” value in assay [4] amounted to 241 ± 40 mm2. Besides, the “Inhibition zone C. crescentus pfuhAh” value in assay [5] came to 108 ± 11 mm2.
Take `CC[C@H]1/C=C(\C)[C@@H](O)C/C=C/C=C(\CNCc2nnc(-c3cc(Cl)cc(Cl)c3)o2)C(=O)O[C@H]([C@@H](C)O)C/C=C(C)/C=C(\C)[C@@H]1O[C@@H]1OC(C)(C)[C@@H](OC(=O)C(C)C)[C@H](O)[C@@H]1O` [compound 21]: the IC90 in assay [2] is 8 µg/mL (≈ 8.98 µM). Further, the figures for the MIC in assay [3] and in assay [6] were 2 µg/mL (≈ 2.24 µM) and 4 µg/mL (≈ 4.49 µM), respectively. Further, the “Inhibition zone C. crescentus pfuhAh_∆acrABnodT” value in assay [4] was 73 ± 11 mm2.
Regarding `CC[C@H]1/C=C(\C)[C@@H](O)C/C=C/C=C(\CNCc2nnc(-c3cccc(O)c3O)o2)C(=O)O[C@H]([C@@H](C)O)C/C=C(C)/C=C(\C)[C@@H]1O[C@@H]1OC(C)(C)[C@@H](OC(=O)C(C)C)[C@H](O)[C@@H]1O` [compound 22], in assay [2], the IC90 amounted to 4 µg/mL (≈ 4.68 µM). Also, the values for the MIC in assay [3] and in assay [6] were 2 µg/mL (≈ 2.34 µM) and 8 µg/mL (≈ 9.37 µM), respectively.
As for `CC[C@H]1/C=C(\C)[C@@H](O)C/C=C/C=C(\CNCc2nnc(-c3ccc(C(F)(F)F)cc3)o2)C(=O)O[C@H]([C@@H](C)O)C/C=C(C)/C=C(\C)[C@@H]1O[C@@H]1OC(C)(C)[C@@H](OC(=O)C(C)C)[C@H](O)[C@@H]1O` [compound 23], the IC90 in assay [2] (setting [8]) worked out at 8 µg/mL (≈ 8.99 µM). The values for the MIC in assay [3] (setting [9]) and in assay [6] were 2 µg/mL (≈ 2.25 µM) and 4 µg/mL (≈ 4.49 µM), respectively.
For the compound `CC[C@H]1/C=C(\C)[C@@H](O)C/C=C/C=C(\CNc2ccc(C#N)cc2)C(=O)O[C@H]([C@@H](C)O)C/C=C(C)/C=C(\C)[C@@H]1O[C@@H]1OC(C)(C)[C@@H](OC(=O)C(C)C)[C@H](O)[C@@H]1O` [compound 24], the “activity against M. tuberculosis (in words)” value in assay [2] was “showed activity”. Also, the IC90 in assay [2] (setting [8]) is 16 µg/mL (≈ 20.9 µM). The MIC turned out to be 16 µg/mL (≈ 20.9 µM) in assay [3] (setting [9]) and 4 µg/mL (≈ 5.23 µM) in assay [6].
For the compound `CC[C@H]1/C=C(\C)[C@@H](O)C/C=C/C=C(\CNc2ccc(C#N)cn2)C(=O)O[C@H]([C@@H](C)O)C/C=C(C)/C=C(\C)[C@@H]1O[C@@H]1OC(C)(C)[C@@H](OC(=O)C(C)C)[C@H](O)[C@@H]1O` [compound 25], the IC90 in assay [2] (setting [8]) came out at 16 µg/mL (≈ 20.9 µM). Further, the MIC in assay [3] (setting [9]) turned out to be 8 µg/mL (≈ 10.4 µM). Also, the “MIC C. difficile” value in assay [6] came out at 1 µg/mL (≈ 1.31 µM).
As for `CC[C@H]1/C=C(\C)[C@@H](O)C/C=C/C=C(\CNc2cccc(CN)c2)C(=O)O[C@H]([C@@H](C)O)C/C=C(C)/C=C(\C)[C@@H]1O[C@@H]1OC(C)(C)[C@@H](OC(=O)C(C)C)[C@H](O)[C@@H]1O` [compound 27], in assay [7], the IC50 is greater than 100000 nM. Besides, the IC90 in assay [2] (setting [8]) was determined as 32 µg/mL (≈ 41.6 µM). In addition, in assay [4], the “Inhibition zone C. crescentus pfuhAh_∆acrABnodT” value stood at 119 ± 15 mm2. In addition, the MIC in assay [6] is greater than 32 µg/mL.
For the compound `CC[C@H]1/C=C(\C)[C@@H](O)C/C=C/C=C(\CNc2cccc(CNC(=O)c3ccc(OC)c(OC)c3Cl)c2)C(=O)O[C@H]([C@@H](C)O)C/C=C(C)/C=C(\C)[C@@H]1O[C@@H]1OC(C)(C)[C@@H](OC(=O)C(C)C)[C@H](O)[C@@H]1O` [compound 30], the IC50 in assay [7] was found to be 620 ± 290 nM. For the same compound, the IC90 in assay [2] (setting [8]) worked out at 16 µg/mL (≈ 16.5 µM). The MIC in assay [6] was greater than 32 µg/mL.

In general, IC90 refers to the point of the concentration-response curve where the effect stands at 90%. The IC50 is the concentration needed to halve the response being measured.

The record behind these values is paper PMC11811690 (Angewandte Chemie (International Ed. in English), 2024).
